# Results taken from PubChem BioAssay (NCI).
# Where “and” joins values, the source holds several entries; their conditions need not be identical. Identical values can stand only once.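 All cell lines were grown in 96-well plates and treated with compound for 48 hours. Abbreviation: GI50, concentration required for 50% inhibition of growth. TGI: total growth inhibition.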
# Legend:
# Assay in all cases: NCI tumour cell line growth inhibition, 48 h
# HL-60(TB) leukemia = system: HL-60(TB) leukemia
# HCT-116 colon = system: HCT-116 colon
# SK-OV-3 ovarian = system: SK-OV-3 ovarian
# HT29 colon = system: HT29 colon
# NCI/ADR-RES ovarian = system: NCI/ADR-RES ovarian
# TK-10 renal = system: TK-10 renal
# SF-539 CNS = system: SF-539 CNS
# EKVX NSCLC = system: EKVX NSCLC
# UACC-257 melanoma = system: UACC-257 melanoma
# CAKI-1 renal = system: CAKI-1 renal
SMILES,GI50 (HL-60(TB) leukemia),TGI (HL-60(TB) leukemia),GI50 (HCT-116 colon),TGI (HCT-116 colon),GI50 (SK-OV-3 ovarian),TGI (SK-OV-3 ovarian),GI50 (HT29 colon),TGI (HT29 colon),GI50 (NCI/ADR-RES ovarian),TGI (NCI/ADR-RES ovarian),GI50 (TK-10 renal),TGI (TK-10 renal),GI50 (SF-539 CNS),TGI (SF-539 CNS),GI50 (EKVX NSCLC),TGI (EKVX NSCLC),GI50 (UACC-257 melanoma),TGI (UACC-257 melanoma),GI50 (CAKI-1 renal),TGI (CAKI-1 renal)
Nc1n[nH]c2ccc([C@H]3[C@@H]4C5CCC(C5)[C@@H]4c4c(ccc5[nH]ncc45)N3S(=O)(=O)C3CC3)cc12 (some centres not stated),0.12 µM,0.996 µM,0.195 µM,> 9.99 µM,5.59 µM,38.8 µM,0.171 µM,8.52 µM,0.231 µM,> 50 µM,3.98 µM,36.4 µM,0.135 µM,0.484 µM,0.264 µM,> 45.4 µM,8.04 µM,> 47.5 µM,0.156 µM,3.42 µM
CCOC(=O)Nc1nc(-c2ccccc2)c(C)s1,–,90.5 µM,–,> 100 µM,–,> 100 µM,–,> 100 µM,–,> 100 µM,–,> 100 µM,–,> 100 µM,–,> 100 µM,–,> 100 µM,–,> 100 µM
CN(CCNc1ccc(C(=N)N)cc1)c1ccc(C(=N)N)cc1,49.4 µM,> 100 µM,> 100 µM,> 100 µM,34.5 µM,> 100 µM,80.8 µM,> 100 µM,63.6 µM,> 100 µM,53.4 µM,> 100 µM,35.1 µM,> 100 µM,20 µM,> 100 µM,35.1 µM,> 100 µM,2.7 µM,37.3 µM
Nc1ncnc2occ(-c3ccc(NC(=O)Nc4cc(C(F)(F)F)ccc4F)cc3)c12,6.88 µM and 6.16 µM,16 µM and 14.7 µM,5.2 µM and 1.51 µM,16.8 µM and 9.61 µM,8.24 µM and 4.19 µM,25 µM and 12.6 µM,4.42 µM and 2.64 µM,11.6 µM and 7.03 µM,5.44 µM and 3.09 µM,20.2 µM and 13.3 µM,4.78 µM and 1.6 µM,14.3 µM and 8.76 µM,2.78 µM and 1.09 µM,8.79 µM and 6.45 µM,5.12 µM and 3.97 µM,16.6 µM and 13.2 µM,6.19 µM and 4.11 µM,15.6 µM and 8.64 µM,4.36 µM and 1.78 µM,18.2 µM and 9 µM
NNC(=S)N/N=C/c1ccccn1,1.74 µM,5.92 µM,1.66 µM,> 100 µM,2.89 µM,> 100 µM,3.54 µM,> 100 µM,2.81 µM,> 100 µM,1.96 µM,> 100 µM,2.06 µM,9.32 µM,4.5 µM,> 100 µM,2.7 µM,26.6 µM,1.66 µM,> 100 µM
CC12OC(C(=O)C13CC3)C1C(=O)c3cccc(O)c3C(=O)C12 (configuration not stated),–,0.539 µM,4.31 µM,6.42 µM,22.9 µM,> 75.3 µM,10.6 µM,> 100 µM,6.9 µM,25.3 µM,8.82 µM,30.6 µM,5.36 µM,> 56.1 µM,11.8 µM,37.6 µM,19.6 µM,50.8 µM,3.43 µM,11.1 µM
C#CCOCCCC(=O)O,–,> 100 µM,–,> 100 µM,–,> 100 µM,–,> 100 µM,–,> 100 µM,–,> 100 µM,–,> 100 µM,–,> 100 µM,–,> 100 µM,–,> 100 µM
CC[C@@]1(O)C(=O)OCc2c1cc1n(c2=O)Cc2cc3c(OC)cccc3nc2-1,0.00321 µM,–,–,> 100 µM,0.00955 µM,4.41 µM,–,> 43.7 µM,–,> 100 µM,–,50 µM,0.00654 µM,0.224 µM,–,8.56 µM,0.0646 µM,4.25 µM,0.00503 µM and < 0.215 µM,0.238 µM
O=P1(O)c2ccccc2CSCc2ccccc21,–,> 100 µM,–,> 100 µM,–,> 100 µM,–,> 100 µM,–,> 100 µM,–,> 100 µM,–,> 100 µM,–,> 100 µM,–,> 100 µM,–,> 100 µM
O=C(NCCNc1nccc(-c2c(-c3ccc(F)cc3)nc3sccn23)n1)Nc1cccc(C(F)(F)F)c1,11.5 µM,> 100 µM,5.47 µM,18.9 µM,2.67 µM,11.9 µM,6.44 µM,28 µM,4.38 µM,64.2 µM,10.5 µM,36.2 µM,11.5 µM,26.7 µM,4.69 µM,30.6 µM,10.6 µM,26.1 µM,3.68 µM,27.6 µM
COC(=O)Nc1nc2ccc(C(=O)C3CC3)cc2[nH]1,0.448 µM,> 100 µM,0.438 µM,–,0.412 µM,> 62 µM,0.295 µM,6.31 µM,0.329 µM,9.82 µM,1.38 µM,47.2 µM,0.311 µM,3.06 µM,0.554 µM,> 100 µM,0.417 µM,> 100 µM,0.305 µM,> 51.6 µM
